Data from patent US11858959B2, “Glycyrrhetinic acid derivatives for use in treating hyperkalemia” (ARDELYX, INC., priority 2019, dated 2024).

Target: HSD2 (Homo sapiens (Human), UniProt P80365)
Test: HSD2 activity: cortisol level (HTRF) in human descending colon organoid-derived monolayer cultures
Procedure: Human descending colon epithelial stem cells were cultured as 3D organoids in accordance with Sato et al Gastroenterology. […] Cultures were differentiated using SBM containing ENRA and 30 nM aldosterone on day 3, and cultures were used for assay on day 6 or 7. Compounds were diluted in DMSO and serial dilutions prepared by titrating in DMSO. Compounds were then diluted into DMEM/F12. Transwell plates containing descending colon cultures were washed twice with DMEM/F12 and compound was added to the apical compartment. Cells were incubated with test compound for 30 minutes at 37° C., 5% CO2 to equilibrate across the cell membrane. A second compound plate was prepared in which the serially diluted compounds in DMSO were diluted into DMEM/F12 containing 40 nM cortisol. Following the 30 minute pre-incubation step, the apical media was aspirated and compounds diluted in DMEM/F12 with 40 nM cortisol were added to the apical side of the transwell. The plate was then incubated for four hours at 37° C., 5% CO2. Cortisol levels were measured using a cortisol HTRF assay kit as described by the manufacturer (Cisbio). Concentration-response curves were then plotted and IC50 (and pIC50) values were determined using least squares non-linear regression.
Inhibition of HSD2 activity as measured by the inhibition of the conversion of cortisone to cortisol.

Chain of HSD2 (P80365 whole entry): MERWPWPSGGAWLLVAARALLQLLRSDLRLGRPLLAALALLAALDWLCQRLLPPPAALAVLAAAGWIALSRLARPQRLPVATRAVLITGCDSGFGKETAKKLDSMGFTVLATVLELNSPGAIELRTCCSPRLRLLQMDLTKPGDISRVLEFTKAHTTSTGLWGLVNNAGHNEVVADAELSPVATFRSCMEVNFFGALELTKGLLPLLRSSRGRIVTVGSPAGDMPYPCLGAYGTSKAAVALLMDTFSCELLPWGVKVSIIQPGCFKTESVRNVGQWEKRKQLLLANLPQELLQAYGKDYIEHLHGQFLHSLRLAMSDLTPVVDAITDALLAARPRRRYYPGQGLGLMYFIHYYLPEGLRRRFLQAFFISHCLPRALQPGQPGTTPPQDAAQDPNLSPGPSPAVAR

| Compound | IC50 | pIC50 (HSD2 inhibition in human descending colon cultures, 30 min pre-incubation, then 40 nM cortisol for four hours, cortisol HTRF) |
| --- | --- | --- |
| C[C@]1(C(=O)O)CC[C@]2(C)CC[C@]3(C)C(=CC(=O)[C@@H]4[C@@]5(C)CC[C@H](O)[C@@](C)(COCC(=O)O)C5CC[C@]43C)[C@@H]2C1 (stereo partly drawn) [(2S,4aS,6aS,6bR,9R,10S,12aS,12bR,14bR)-9-[(carboxymethoxy)methyl]-10-hydroxy-2,4a,6a,6b,9,12a-hexamethyl-13-oxo-1,2,3,4,4a,5,6,6a,6b,7,8,8a,9,10,11,12,12a,12b,13,14b-icosahydropicene-2-carboxylic acid] | > 10 µM |  |
| CCC(=O)O[C@H]1CC[C@@]2(C)[C@@H](CC[C@]3(C)[C@@H]2C(=O)C=C2[C@@H]4C[C@@](C)(C(=O)O)CC[C@]4(C)CC[C@]23C)[C@]1(C)NC(=O)OCc1oc(=O)oc1CC [Compound 318-1, (2S,4aS,6aS,6bR,8aR,9S,10S,12aS,12bR,14bR)-9-((((5-ethyl-2-oxo-1,3-dioxol-4-yl)methoxy)carbonyl)amino)-2,4a,6a,6b,9,12a-hexamethyl-13-oxo-10-(propionyloxy)-1,2,3,4,4a,5,6,6a,6b,7,8,8a,9,10,11,12,12a,12b,13,14b-icosahydropicene-2-carboxylic Acid] | 0.0355 µM |  |
| CCC(=O)O[C@H]1CC[C@]2(C)[C@H]3C(=O)C=C4[C@@H]5C[C@@](C)(C(=O)O)CC[C@]5(C)CC[C@@]4(C)[C@]3(C)CC[C@H]2[C@]1(C)N [(2S,4aS,6aS,6bR,8aR,9S,10S,12aS,12bR,14bR)-9-amino-2,4a,6a,6b,9,12a-hexamethyl-13-oxo-10-(propanoyloxy)-1,2,3,4,4a,5,6,6a,6b,7,8,8a,9,10,11,12,12a,12b,13,14b-icosahydropicene-2-carboxylic acid] | 0.398 µM |  |
| C[C@]1(C(=O)O)CC[C@]2(C)CC[C@]3(C)C(=CC(=O)[C@@H]4[C@@]5(C)CC[C@H](O)[C@@](C)(N)[C@@H]5CC[C@]43C)[C@@H]2C1 [(2S,4aS,6aS,6bR,8aR,9S,10S,12aS,12bR,14bR)-9-amino-10-hydroxy-2,4a,6a,6b,9,12a-hexamethyl-13-oxo-1,2,3,4,4a,5,6,6a,6b,7,8,8a,9,10,11,12,12a,12b,13,14b-icosahydropicene-2-carboxylic acid] | > 10 µM |  |
| CN(C)CC(=O)O[C@H]1CC[C@@]2(C)[C@@H](CC[C@]3(C)[C@@H]2C(=O)C=C2[C@@H]4C[C@@](C)(C(=O)O)CC[C@]4(C)CC[C@]23C)[C@]1(C)C(=O)O [(2S,4aS,6aS,6bR,8aR,9S,10S,12aS,12bR,14bR)-10-{[2-(dimethylamino)acetyl]oxy}-2,4a,6a,6b,9,12a-hexamethyl-13-oxo-1,2,3,4,4a,5,6,6a,6b,7,8,8a,9,10,11,12,12a,12b,13,14b-icosahydropicene-2,9-dicarboxylic acid] | > 10 µM |  |
| COCO[C@H]1CC[C@@]2(C)[C@@H](CC[C@]3(C)[C@@H]2C(=O)C=C2[C@@H]4C[C@@](C)(C(=O)O)CC[C@]4(C)CC[C@]23C)[C@]1(C)C(=O)OCc1oc(=O)oc1C(C)C [Compound 258-2, (2S,4aS,6aS,6bR,8aR,9S,10S,12aS,12bR,14bR)-9-(((5-Isopropyl-2-oxo-1,3-dioxol-4-yl)methoxy)carbonyl)-10-(methoxymethoxy)-2,4a,6a,6b,9,12a-hexamethyl-13-oxo-1,2,3,4,4a,5,6,6a,6b,7,8,8a,9,10,11,12,12a,12b,13,14b-icosahydropicene-2-carboxylic Acid] | 0.126 µM |  |
| C[C@]1(C(=O)O)CC[C@]2(C)CC[C@]3(C)C(=CC(=O)[C@@H]4[C@@]5(C)CC[C@H](OC(=O)NCCN6CCOCC6)[C@@](C)(C(=O)O)[C@@H]5CC[C@]43C)[C@@H]2C1 [(2S,4aS,6aS,6bR,8aR,9S,10S,12aS,12bR,14bR)-2,4a,6a,6b,9,12a-hexamethyl-10-({[2-(morpholin-4-yl)ethyl]carbamoyl}oxy)-13-oxo-1,2,3,4,4a,5,6,6a,6b,7,8,8a,9,10,11,12,12a,12b,13,14b-icosahydropicene-2,9-dicarboxylic acid] | > 10 µM |  |
| 2-(3-((1-PEG5K-1H-1,2,3-triazol-4-yl)methoxy)-4-nitrobenzyl) 9-((5-methyl-2-oxo-1,3-dioxol-4-yl)methyl)(2S,4aS,6aS,6bR,8aR,9S,10S,12aS,12bR,14bR)-10-((2,5,8,11-tetraoxatetradecan-14-oyl)oxy)-2,4a,6a,6b,9,12a-hexamethyl-13-oxo-1,2,3,4,4a,5,6,6a,6b,7,8,8a,9,10,11,12,12a,12b,13,14b-icosahydropicene-2,9-dicarboxylate [Compound 605-2] |  | 6.9 |
| COC(=O)N[C@H]1CC[C@@]2(C)[C@@H](CC[C@]3(C)[C@@H]2C(=O)C=C2[C@@H]4C[C@@](C)(C(=O)O)CC[C@]4(C)CC[C@]23C)[C@]1(C)C(=O)O [(2S,4aS,6aS,6bR,8aR,9S,10S,12aS,12bR,14bR)-10-[(methoxycarbonyl)amino]-2,4a,6a,6b,9,12a-hexamethyl-13-oxo-1,2,3,4,4a,5,6,6a,6b,7,8,8a,9,10,11,12,12a,12b,13,14b-icosahydropicene-2,9-dicarboxylic acid] | > 10 µM |  |
| COCC(=O)O[C@H]1CC[C@@]2(C)[C@@H](CC[C@]3(C)[C@@H]2C(=O)C=C2[C@@H]4C[C@@](C)(C(=O)O)CC[C@]4(C)CC[C@]23C)[C@]1(C)C(=O)O [(2S,4aS,6aS,6bR,8aR,9S,10S,12aS,12bR,14bR)-10-[(2-methoxyacetyl)oxy]-2,4a,6a,6b,9,12a-hexamethyl-13-oxo-1,2,3,4,4a,5,6,6a,6b,7,8,8a,9,10,11,12,12a,12b,13,14b-icosahydropicene-2,9-dicarboxylic acid] | > 10 µM |  |
| C[C@]1(C(=O)O)CC[C@]2(C)CC[C@]3(C)C(=CC(=O)[C@@H]4[C@@]5(C)CC[C@H](OC(=O)CS(C)(=O)=O)[C@@](C)(C(=O)O)[C@@H]5CC[C@]43C)[C@@H]2C1 [(2S,4aS,6aS,6bR,8aR,9S,10S,12aS,12bR,14bR)-10-[(2-methanesulfonylacetyl)oxy]-2,4a,6a,6b,9,12a-hexamethyl-13-oxo-1,2,3,4,4a,5,6,6a,6b,7,8,8a,9,10,11,12,12a,12b,13,14b-icosahydropicene-2,9-dicarboxylic acid] | > 10 µM |  |
